Data on five compounds can be found in patent US8119839B2, “Carboxylic acid and antidepressant composition containing the same as active ingredient” (Yamada Apiculture Center, Inc., priority 2007, dated 2012).

Common to all, as to assay type: in vivo, mouse
Data set [1] has as its system ovariectomy model mice. Nature of the data set: Forced swimming test, modified (Test Example 2). The settings on record: oral for 14 days; for Immobility Time (second) Mean: 2 hours after last dose, 2nd minute to 4th minute, mean of 6 animals; for antidepressant effect: conclusion from Table 1 and FIG. 11. Here is the method:
Test Example 1 was partly modified as below, and a forced swimming test was performed to evaluate an antidepressant effect using the compounds (DDA-7 and DDA-14 to DDA-16) prepared in Preparation Examples 3 to 6 as test compounds. Regarding DDA-14 and DDA-15, a naturally occurring racemic form thereof has been reported, and thus, similarly to the mixture ratio by weight thereof, DDA-14 and DDA-15 were mixed at the ratio of 3:1 and prepared (2E,9S+9R)-9-hydroxy-2-decenoic acid (racemic form).
The experimental animals (ovariectomy model mice), to which each test compound was administered for 14 days (the first day of the administration was the following day after the day the ovaries were removed), were forced to swim. A 0.32 mg amount of compound DDA-7, 0.29 mg and 0.088 mg of DDA-14 and DDA-15, respectively, and 0.29 mg of DDA-16 were each individually dissolved in 80 ml of ion exchange water for administration. On the 14th day from the day each test compound administration was commenced, and 2 hours after the test compound was orally administered, each of the experimental animals was placed into a water tank, and the swimming time was measured for 10 minutes (test group). As a control experiment, the same procedure was performed as above, except that distilled water for injection was orally administered in place of the test compounds to each of the experimental animals (ovariectomy model mouse) in an amount of 0.1 ml per 10 g of body weight (control group).
The ten-minute swimming time was divided into one-minute periods to conduct analysis.

In data set [2] the test system is ovariectomy model mice. Kind of data set: Forced swimming test (Test Example 1). As to the method: A forced swimming test has been widely used in the preclinical assessment of the antidepressant effect, and clinically effective antidepressants are known to shorten the immobility time (Porsort et al., Nature, 266, 730-732, 1977).
Therefore, the D4-II-3E-4 fraction ((2E)-9,10-dihydroxy-2-decenoic acid) prepared in Preparation Example 1 was administered to the animal model to undergo a forced swimming test (Nature, 266:730-732, 1977), and the antidepressant effect of the compound was evaluated.
ICR female mice (9 weeks old; weight: 29 to 33 g) were used as experimental animals. All of the mice were group-housed (10 mice per cage), and the feed and white flake bedding were exchanged once per week. The surgery to remove the ovaries was performed according to the following method.
Under pentobarbital anesthesia (65 mg/kg, i.p.), a 5 mm incision was made in the dorsal abdomen of a mouse, and the ovaries was temporarily exposed to the outside of the body. After ligation between the ovaries and uterus end (i.e. oviducts), the ovaries were dissected. Thereafter, the oviducts were promptly returned to the intraperitoneal cavity, and the abdominal wall and the skin were sutured.
A 0.25 mg amount of the D4-II-3E-4 fraction (a freeze-dried product) prepared in Preparation Example 1 was dissolved in 50 ml of ion exchange water to prepare a suspension. […]
Water at a temperature of 25° C. was introduced into a clear measuring cylinder made of polycarbonate (inner diameter: 10 cm; height: 25 cm) so that the water surface level was adjusted to 10 cm from the bottom. Each mouse was forced to swim for 6 minutes while being recorded by a high-sensitivity video system. Thereafter, the recorded image was observed, and by means of an event recorder, the time (in seconds) during which the mouse was floating in an immobile state was measured (an analysis was made for the duration of the 4 minutes from the second minute onward).

Data set [3] concerns ovariectomy model mice. Kind of data set: Uterus weight measurement after forced swimming test (Test Example 1). The settings on record: dose that shortens the immobility time, wet weight, FIG. 9. Here is the method:
After conducting the forced swimming test (after completing the observation of the immobility time), an overdose of pentobarbital (100 mg/kg or more) was administered to each of the mice to cause them to stop breathing, and the mice were sacrificed. Then, the uterus was collected from each of the mice through an incision in the abdomen. The collected uterus was spread onto a filter paper, and after the serosa and blood vessel adhering to the uterus were removed, the weight of the uterus was promptly measured on a wet basis with an analytical balance.

In the case of `CC(O)CCCCC/C=C/C(=O)O` (racemic) [DDA14 + DDA15, (2E,9S+9R)-9-hydroxy-2-decenoic acid], in the data set with ovariectomy model mice [1], the “Immobility Time (second) Mean” value was 98.82 s and the antidepressant effect result is given as “exhibit an antidepressant effect”.
For the compound `O=C(O)C=CCCCCCCCO` [10-hydroxydecenoic acid, reference compound], in the data set with ovariectomy model mice [2] (oral 70, 140, 210 mg/kg/day, FIG. 10), the antidepressant effect entry is “does not exhibit an antidepressant effect”.
Consider `O=C(O)/C=C/CCCCCC(O)CO` (stereo not shown) [D4-II-3E-4 fraction, (2E)-9,10-dihydroxy-2-decenoic acid], for which the “immobility time compared with control group” value in the data set on ovariectomy model mice [2] (0.25 mg in 50 ml water, 0.1 ml per 10 g body weight orally once a day for 2 weeks, 4 minutes from the second minute onward, FIG. 8) was “significantly shorter”. Moreover, in the data set on ovariectomy model mice [2] (oral, once a day for 2 weeks, conclusion from FIG. 8), the antidepressant effect result is given as “exhibits an antidepressant effect”. For the same compound, the “uterus weight compared with control group” value in the data set with ovariectomy model mice [3] was “a difference in the uterus weights was not recognized”.
For the compound `O=C(O)/C=C\CCCCC[C@@H](O)CO` [DDA-7, (2Z,9R)-9,10-dihydroxy-2-decenoic acid], in the data set with ovariectomy model mice [1], the “Immobility Time (second) Mean” value stood at 80.14 s and the antidepressant effect entry is recorded as “exhibit an antidepressant effect”.
In the same order, the values of `CC(=O)OCCCC/C=C/C(=O)O` [DDA-16, (2E)-7-acetoxy-2-heptenoic acid] are 87.14 s and “exhibit an antidepressant effect”.
